Measurements published in patent EP4745135A1 (Gluetacs Therapeutics (Shanghai) Co., Ltd., priority 2023, dated 2025).

Target: T1, human Cereblon WT GST-tagged protein (Homo sapiens, UniProt Q96SW2)
T1 construct: purchased CISBIO 64BDCRBNPEH
Assay: CRBN-binding affinity, HTRF (CEREBLON BINDING kit)
Conditions: for inhibition at 0.5 µM: read-out: Inhibition Rate at 0.5 µM (%); for inhibition at 2 µM: read-out: Inhibition Rate at 2 µM (%); for IC50: CRBN binding, HTRF, 3 hours at room temperature, read-out: HTRF IC50
Procedure: The CEREBLON BINDING kits (specification: 10,000 tests; product number: Catalog # 64BDCRBNPEH; CISBIO company) was used to determine the CRBN binding ability of the compounds to be tested through a HTRF method (homogeneous time-resolved fluorescence). The specific methods are as follows: • 1. […] Specifically, diluent #9 (1X) solution was used as the diluent, and multiple concentration gradients were set. […] Then, 2.5 µL of human Cereblon WT GST-tagged protein solution was added to each well. Finally, 5 µL of the thoroughly mixed Thalidomide-Re reagent and GST Eu antibody working solution were added to each of the aforementioned wells. […] The blank control wells were sequentially added with 2.5 µL of diluent #9 (1X) solution, 2.5 µL of PROTAC binding buffer, and 5 µL of thoroughly mixed Thalidomide-Re reagent and GST Eu antibody working solution. • 4.

T1 sequence (Q96SW2 whole entry): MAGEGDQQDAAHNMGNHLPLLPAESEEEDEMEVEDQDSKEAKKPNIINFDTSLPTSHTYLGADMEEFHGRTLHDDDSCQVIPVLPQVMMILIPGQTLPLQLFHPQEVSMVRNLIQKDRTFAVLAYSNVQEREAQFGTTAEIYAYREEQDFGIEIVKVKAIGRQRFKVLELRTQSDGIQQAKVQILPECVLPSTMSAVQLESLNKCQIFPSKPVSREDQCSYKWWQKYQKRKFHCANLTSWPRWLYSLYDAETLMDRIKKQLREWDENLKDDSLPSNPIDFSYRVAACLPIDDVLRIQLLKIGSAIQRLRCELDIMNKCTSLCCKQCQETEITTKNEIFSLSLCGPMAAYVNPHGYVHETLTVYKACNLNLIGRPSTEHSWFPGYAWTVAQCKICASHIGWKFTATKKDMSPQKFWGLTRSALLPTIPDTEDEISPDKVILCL

Structure (SMILES) | inhibition at 0.5 µM | inhibition at 2 µM | IC50
O=C1CCC(N2Cc3c(CN4CCN(c5nc6c(c(N7CCOCC7)n5)SCC6)CC4)cccc3C2=S)C(=O)N1 (stereo not drawn) [GT-08969, 3-(4-((4-(4-morpholino-6,7-dihydrothieno[3,2-d]pyrimidin-2-yl)piperazin-1-yl)methyl)-1-thioxoisoindolin-2-yl)piperidine-2,6-dione] | 60 to 80% | 80 to 100% | –
O=C1CCC(N2Cc3ccc(CN4CCc5sccc5C4)cc3C2=S)C(=O)N1 (stereo not drawn) [GT-05039, 3-(6-((6,7-dihydrothieno[3,2-c]pyridin-5(4H)-yl)methyl)-1-thioxoisoindolin-2-yl)piperidine-2,6-dione] | – | – | 100 to 500 nM
O=C1CCC(N2Cc3c(CO)cccc3C2=S)C(=O)N1 (stereo not drawn) [GT-06981, 3-(4-(hydroxymethyl)-1-thioxoisoindolin-2-yl)piperidine-2,6-dione] | – | – | < 100 nM
O=C1CCC(N2Cc3c(CN4CCN(c5nc6c(c(N7CCNCC7)n5)SCC6)CC4)cccc3C2=S)C(=O)N1 (stereo not drawn) [GT-09035, 3-(4-((4-(4-(piperazin-1-yl)-6,7-dihydrothieno[3,2-d]pyrimidin-2-yl)piperazin-1-yl)methyl)-1-thioxoisoindolin-2-yl)piperidine-2,6-dione] | 60 to 80% | 80 to 100% | –
O=C1CCC(N2Cc3c(CN4CCN(Cc5ccccc5-c5ccc(Cl)cc5)CC4)cccc3C2=S)C(=O)N1 (stereo not drawn) [GT-08295, 3-(4-((4-((4'-chloro-[1,1'-biphenyl]-2-yl)methyl)piperazin-1-yl)methyl)-1-thioxoisoindolin-2-yl)piperidine-2,6-dione] | 30 to 40% | 60 to 80% | –
Cc1nc(N2CCN(Cc3cccc4c3CN(C3CCC(=O)NC3=O)C4=S)CC2)c2c(-c3ccccc3)csc2n1 (stereo not drawn) [GT-08921, 3-(4-((4-(2-methyl-5-phenylthieno[2,3-d]pyrimidin-4-yl)piperazin-1-yl)methyl)-1-thioxoisoindolin-2-yl)piperidine-2,6-dione] | 30 to 40% | 80 to 100% | –
O=C1CCC(N2Cc3cc(CN4CCN(c5ncncn5)CC4)ccc3C2=S)C(=O)N1 (stereo not drawn) [GT-09249, 3-(5-((4-(1,3,5-triazin-2-yl)piperazin-1-yl)methyl)-1-thioxoisoindolin-2-yl)piperidine-2,6-dione] | 60 to 80% | 80 to 100% | –
O=C1CCC(N2Cc3cc(CN4CCN(c5cnnc(Cl)c5Cl)CC4)ccc3C2=S)C(=O)N1 (stereo not drawn) [GT-09255, 3-(5-((4-(5,6-dichloropyridazin-4-yl)piperazin-1-yl)methyl)-1-thioxoisoindolin-2-yl)piperidine-2,6-dione] | 80 to 100% | 80 to 100% | –

Next, values leading:

inhibition at 0.5 µM | inhibition at 2 µM | IC50 | Structure (SMILES)
40 to 53% | 80 to 100% | – | O=C1CCC(N2Cc3cc(CN4CCN(c5ccc(C(F)(F)F)cc5)CC4)ccc3C2=S)C(=O)N1 (stereo not drawn) [GT-08239, 3-(1-thioxo-5-((4-(4-(trifluoromethyl)phenyl)piperazin-1-yl)methyl)isoindolin-2-yl)piperidine-2,6-dione]
60 to 80% | 80 to 100% | – | O=C1CCC(N2Cc3cc(CN4CCN(c5ncnc(Cl)c5Cl)CC4)ccc3C2=S)C(=O)N1 (stereo not drawn) [GT-09254, 3-(5-((4-(5,6-dichloropyrimidin-4-yl)piperazin-1-yl)methyl)-1-thioxoisoindolin-2-yl)piperidine-2,6-dione]
60 to 80% | 80 to 100% | – | O=C1CCC(N2Cc3cc(CN4CCN(c5ccnc(Cl)c5Cl)CC4)ccc3C2=S)C(=O)N1 (stereo not drawn) [GT-09354, 3-(5-((4-(2,3-dichloropyridin-4-yl)piperazin-1-yl)methyl)-1-thioxoisoindolin-2-yl)piperidine-2,6-dione]
– | – | 100 to 500 nM | O=C1CCC(N2Cc3ccc(CN4CCN(c5nsc6ccccc56)CC4)cc3C2=S)C(=O)N1 (stereo not drawn) [GT-05040, 3-(6-((4-(benzo[d]isothiazol-3-yl)piperazin-1-yl)methyl)-1-thioxoisoindolin-2-yl)piperidine-2,6-dione]
